Common to all, as to type: cell-based
In assay [1] the test system is SU86 pancreatic cancer cell line (Su.86.86). The experiment in a line: Cell survival and adhesion assay (luciferase), SU86. The conditions noted are these: 5 hours, SU86 cells overlayed onto human mesothelial cell monolayers, read-out: relative reduction in Luciferase activity, SU86 10 μM. The method, then: (§1) SU86 is a pancreatic cancer cell line. HT29 is a colon cancer cell line. BxPC3 is a pancreatic cell line. A2780 is an ovarian cancer cell line.
(§2) BxPc-3 and Su.86.86 pancreatic and HT-29 colon and A2780 ovarian cancer cell lines were purchased from ATCC and cultured in DMEM supplemented with 10% fetal bovine serum, glutamine, penicillin, and streptomycin. All cells were cultured at 37° C. in a humidified incubator in a 5% CO2 atmosphere. The cancer cell lines were transduced with a retrovirus containing pLuc-puro, a constitutive luciferase reporter and selected in […] media. Transient transfection of a full-length human c-FLIP construct in the vector pcDNA3 was performed as previously described. Scaife et al. Cancer Research 2002, 62: 6870-78.
(§3) Pancreatic cancer cell cultures (BxPc-3 and Su.86.86) and colon cancer (HT-29) and ovarian cancer (A2780) cells that were stably transfected with a firefly luciferase construct were transiently suspended with trypsin-PBS. 10^5 cells were overlayed onto confluent monolayers of human mesothelial cells in 96-well plates while simultaneously adding various concentrations of compounds of the invention or DMSO for 5 hours. The non-adherent cells were carefully washed away from the wells twice with 100 μl/well of blocking buffer (1% BSA in PBS) and twice again with ice-cold PBS. Adherent and surviving cells were detected by luciferase activity in a luminometer as follows. The cells were lysed in 0.1% TritonX-100, 25 mM Gly-Gly (7.8), MgSO4, 4 mM EGTA, 1 mM DTT. The total protein concentration was normalized with lysis buffer. 50 μl of cell lysate was added per well of a 96-well microtiter plate. 50 μl of luciferin substrate (Promega) was added per well and then the light output determined in a luminometer.

Assay [2] deals with A2780 ovarian cancer cell line. The experiment in a line: Cell survival and adhesion assay (luciferase), A2780. The note with it: 5 hours, A2780 cells overlayed onto human mesothelial cell monolayers, read-out: relative reduction in Luciferase activity, A2780 10 μM. On the procedure:
as §1, §2, §3

The test system of assay [3] is BxPC3 pancreatic cell line. The experiment in a line: Cell survival and adhesion assay (luciferase), BxPC3. The conditions noted are these: BXPC-3, 5 hours, BxPC3 cells overlayed onto human mesothelial cell monolayers, read-out: relative reduction in Luciferase activity, BxPC3 10 μM. The method, then:
as §1, §2, §3

SMILES strings stand for the structures. Some results are limits rather than exact numbers.

Take `C[C@H](NC(=O)C(C)(C)c1ccc(S(=O)(=O)/C=C/C#N)cc1)c1ccccc1` [Example 16, 2-[4-((E)-2-Cyano-ethenesulfonyl)-phenyl]-N—((S)-1-phenyl-ethyl)-isobutyramide]: the inhibition at 10 µM in assay [1] is 50 to 85%; in assay [2], over 85%; in assay [3], 50 to 85%.

Consider `C[C@@H](NC(=O)C(C)(C)c1ccc(S(=O)(=O)/C=C/C#N)cc1)c1ccccc1` [Example 17, 2-[4-((E)-2-Cyano-ethenesulfonyl)-phenyl]-N—((R)-1-phenyl-ethyl)-isobutyramide], for which the inhibition at 10 µM in assay [1] is 50 to 85%; in assay [2], over 85%; in assay [3] it was 50 to 85%.

In the case of `CC(C)(C(=O)NCc1ccc(F)cc1)c1ccc(S(=O)(=O)/C=C/C#N)cc1` [Example 18, 2-[4-((E)-2-Cyano-ethenesulfonyl)-phenyl]-N-(4-fluoro-benzyl)-isobutyramide], the inhibition at 10 µM is 50 to 85% in assay [1], over 85% in assay [2] and 50 to 85% in assay [3].

Consider `C#CCNC(=O)C(C)(C)c1ccc(S(=O)(=O)/C=C/C#N)cc1` [Example 19, 2-[4-((E)-2-Cyano-ethenesulfonyl)-phenyl]-N-prop-2-ynyl-isobutyramide], for which the inhibition at 10 µM in assay [1], in assay [2] and in assay [3] was 10 to 50% throughout.

In the case of `CC(C)(C(=O)NCc1ccc(-n2cccn2)cc1)c1ccc(S(=O)(=O)/C=C/C#N)cc1` [Example 21, 2-[4-((E)-2-Cyano-ethenesulfonyl)-phenyl]-N-(4-pyrazol-1-yl-benzyl)-isobutyramide], the inhibition at 10 µM in assay [1], in assay [2] and in assay [3] was 50 to 85% throughout.

Consider `CC(C)(C)OC(=O)NCCOCCOCCNC(=O)C(C)(C)c1ccc(S(=O)(=O)/C=C/C#N)cc1` [Example 34, {2-[2-(2-{2-[4-((E)-2-Cyano-ethenesulfonyl)-phenyl]-2-methyl-propionylamino}-ethoxy)-ethoxy]-ethyl}-carbamic acid tert-butyl ester], for which the inhibition at 10 µM in assay [3] is under 10%.

Turning to `CC(C)(C(=O)NC1CCCCC1)c1cccc(S(=O)(=O)/C=C/C#N)c1` [Example 35, 2-[3-((E)-2-Cyano-ethenesulfonyl)-phenyl]-N-cyclohexyl-isobutyramide], the inhibition at 10 µM in assay [3] lay within 50 to 85%.

For `COc1cccc(NC(=O)C(C)(C)c2cccc(S(=O)(=O)/C=C/C#N)c2)c1` [Example 36, 2-[3-((E)-2-Cyano-ethenesulfonyl)-phenyl]-N-(3-methoxy-phenyl)-isobutyramide], the inhibition at 10 µM in assay [3] was in the range of 50 to 85%.

With `CC(C)(C(=O)NCc1ccc(F)cc1)c1cccc(S(=O)(=O)/C=C/C#N)c1` [Example 37, 2-[3-((E)-2-Cyano-ethenesulfonyl)-phenyl]-N-(4-fluoro-benzyl)-isobutyramide], the inhibition at 10 µM in assay [3] fell in the range of 50 to 85%.

With `CC(C)(C(=O)NCc1ccc(N)cc1)c1ccc(S(=O)(=O)/C=C/C#N)cc1` [Example 38, N-(4-Amino-benzyl)-2-[4-((E)-2-cyano-ethenesulfonyl)-phenyl]-isobutyramide], the inhibition at 10 µM in assay [3] is 10 to 50%.

Consider `CC(C)(C(=O)NCc1cccc(F)c1)c1ccc(S(=O)(=O)/C=C/C#N)cc1` [Example 39, 2-[4-((E)-2-Cyano-ethenesulfonyl)-phenyl]-N-(3-fluoro-benzyl)-isobutyramide], for which the inhibition at 10 µM in assay [3] lay within 10 to 50%.

Regarding `N#C/C=C/S(=O)(=O)c1ccc(C2(C(=O)NCc3ccc(F)cc3)CC2)cc1` [Example 67, 1-[4-((E)-2-Cyano-ethenesulfonyl)-phenyl]-cyclopropanecarboxylic acid 4-fluoro-benzylamide], the results for the inhibition at 10 µM in assay [2] and in assay [3] were over 85% and 50 to 85%, respectively.

For `N#C/C=C/S(=O)(=O)c1ccc(C2(C(=O)NC3CCCCC3)CC2)cc1` [Example 68, 1-[4-((E)-2-Cyano-ethenesulfonyl)-phenyl]-cyclopropanecarboxylic acid cyclohexylamide], the inhibition at 10 µM was over 85% in assay [2] and 50 to 85% in assay [3].

For the compound `N#C/C=C/S(=O)(=O)c1ccc(C2(C(=O)O)CCC2)cc1` [Example 74, 1-[4-((E)-2-Cyano-ethenesulfonyl)-phenyl]-cyclobutanecarboxylic acid], the inhibition at 10 µM in assay [2] and in assay [3] was under 10% in each case.

With `N#C/C=C/S(=O)(=O)c1ccc(C2(C(=O)Nc3ccccc3)CCC2)cc1` [Example 75, 1-[4-((E)-2-Cyano-ethenesulfonyl)-phenyl]-cyclobutanecarboxylic acid phenylamide], the inhibition at 10 µM in assay [2] is 50 to 85%; in assay [3], over 85%.

For the compound `N#C/C=C/S(=O)(=O)c1ccc(C2(C(=O)NCc3ccc(Cl)cc3)CCC2)cc1` [Example 76, 1-[4-((E)-2-Cyano-ethenesulfonyl)-phenyl]-cyclobutanecarboxylic acid 4-chloro-benzylamide], the inhibition at 10 µM in assay [2] was over 85%; in assay [3], 50 to 85%.

As for `N#C/C=C/S(=O)(=O)c1ccc(C2(C(=O)NC3CCCCC3)CCC2)cc1` [Example 77, 1-[4-((E)-2-Cyano-ethenesulfonyl)-phenyl]-cyclobutanecarboxylic acid cyclohexylamide], the inhibition at 10 µM was over 85% in assay [2] and 50 to 85% in assay [3].

`Cc1ccc(O)c(NC(=O)COc2ccc(S(=O)(=O)/C=C/C#N)cc2C(C)(C)C)c1` [Example 79, 2-[2-tert-Butyl-4-((E)-2-cyano-ethenesulfonyl)-phenoxy]-N-(2-hydroxy-5-methyl-phenyl)-acetamide]: the inhibition at 10 µM in assay [2] and in assay [3] was over 85% each time.

On to `Cc1ccc2oc(COc3ccc(S(=O)(=O)/C=C/C#N)cc3C(C)(C)C)nc2c1` [Example 81, (E)-3-[3-tert-Butyl-4-(5-methyl-benzoxazol-2-ylmethoxy)-benzenesulfonyl]-acrylonitrile], for which the inhibition at 10 µM in assay [2] was over 85%; in assay [3], 50 to 85%.

As for `N#C/C=C/S(=O)(=O)c1ccc(C2(C(=O)O)CCOCC2)cc1` [Example 82, 4-[4-((E)-2-Cyano-ethenesulfonyl)-phenyl]-tetrahydro-pyran-4-carboxylic acid], the inhibition at 10 µM in assay [2] and in assay [3] was under 10% in each case.

In the case of `N#C/C=C/S(=O)(=O)c1ccc(C2(C(=O)NC3CCCCC3)CCOCC2)cc1` [Example 83, 4-[4-((E)-2-Cyano-ethenesulfonyl)-phenyl]-tetrahydro-pyran-4-carboxylic acid cyclohexylamide], the inhibition at 10 µM in assay [2] is under 10%; in assay [3] it was 10 to 50%.

As to `N#C/C=C/S(=O)(=O)c1ccc(C2(C(=O)Nc3ccccc3)CCOCC2)cc1` [Example 84, 4-[4-((E)-2-Cyano-ethenesulfonyl)-phenyl]-tetrahydro-pyran-4-carboxylic acid phenylamide], the inhibition at 10 µM in assay [2] and in assay [3] was 10 to 50% each time.

Take `N#C/C=C/S(=O)(=O)c1ccc(C2(C(=O)NCc3ccc(Cl)cc3)CCOCC2)cc1` [Example 85, 4-[4-((E)-2-Cyano-ethenesulfonyl)-phenyl]-tetrahydro-pyran-4-carboxylic acid 4-chloro-benzylamide]: the inhibition at 10 µM in assay [2] and in assay [3] was 50 to 85% in each case.

Values taken from US9475766B2, “Substituted aromatic sulfur compounds and methods of their use” (Cephalon, Inc., priority 2011, dated 2016).
